Source: ChEMBL document CHEMBL1201862, “PubChem BioAssay data set” (2004)
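1) Cells in 96-well plates. 2) Compound, 48 h, 5 concentrations. 3) Linear interpolation between surrounding doses. 4) Unreached endpoint = highest concentration. The concentration for 50% growth inhibition is given as GI50.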 Activity calls are given as the source filed them. Rule as the data show it: active = GI50 up to about 1.1 µM and inactive = higher.

What was measured:
Assay in all cases: NCI-60 cell line screen, 48 h
RXF 631 = tested on: RXF 631
XF498 = tested on: XF498
DMS-114 = tested on: DMS-114
LXFL 529 = tested on: LXFL 529
M19-MEL = tested on: M19-MEL
DMS-273 = tested on: DMS-273
BT-549 = tested on: BT-549
HOP-18 = tested on: HOP-18
SNB-78 = tested on: SNB-78

SMILES | GI50 (DMS-114) | GI50 (LXFL 529) | GI50 (M19-MEL) | GI50 (DMS-273) | GI50 (BT-549) | also measured
O=C1C2=C(SCCS2)C(=O)c2ccccc21 | 0.871 µM (active) | 1.64 µM (inactive) | 0.236 µM (active) | 1.81 µM (inactive) | – | GI50 (RXF 631): 1.82 µM (inactive); GI50 (XF498): 1.64 µM (inactive)
O=C(N/N=C/c1cc(Br)ccc1O)N/N=C/c1cc(Br)ccc1O | 1.18 µM (inactive) | – | > 100 µM (inactive) | 0.791 µM (active) | – | GI50 (RXF 631): 14.2 µM (inactive); GI50 (XF498): 2.19 µM (inactive)
O=C(O)c1ccccc1CC1Cc2ccccc2C1 | – | – | – | – | > 100 µM (inactive) | –
c1ccc2c(c1)Cn1c-2nc2ccccc21 | – | – | – | – | > 100 µM (inactive) | –
C=C1C(=O)O[C@@H]2C[C@]3(C)CC[C@]4(C)[C@H](CC[C@@H]5[C@@]6(C)CCC(=O)C(C)(C)[C@@H]6CC[C@]54C)[C@H]3[C@H]12 [OCHRACEOLIDE A] | – | – | – | – | 16.1 µM (inactive) | –
O=C1c2ccccc2C(=O)c2c1ccc1c2OCO1 | – | – | – | – | > 100 µM (inactive) | –
COc1ccc(/C=N\N2C(=O)Cc3ccccc32)cc1 | – | – | > 100 µM (inactive) | > 100 µM (inactive) | – | GI50 (XF498): 27.4 µM (inactive); GI50 (HOP-18): > 100 µM (inactive); GI50 (SNB-78): 91.2 µM (inactive)
Cc1ccc(Cl)c2c(=O)c3ccc(N)cc3sc12 | – | – | – | – | 29.4 µM (inactive) | –
Cc1nn(-c2ccccc2)c2nc3c(c(C)nn3-c3ccccc3)c(-c3ccccc3Br)c12 | – | – | – | – | > 100 µM (inactive) | –
CCOC(=O)CCC(NC(=O)c1ccc(NC(OC)c2nc3cc(C(F)(F)F)ccc3nc2-c2ccccc2)cc1)C(=O)OCC (stereo not drawn) | 12.7 µM (inactive) | 7.6 µM (inactive) | 14.7 µM (inactive) | 7.36 µM (inactive) | – | GI50 (RXF 631): 13.7 µM (inactive); GI50 (HOP-18): 18.5 µM (inactive); GI50 (SNB-78): 19.1 µM (inactive)
Nn1c(CCCCCCCCc2nnc(COc3ccc(Cl)cc3)n2N)nnc1COc1ccc(Cl)cc1 | – | – | – | – | > 100 µM (inactive) | –
CSc1ccc(Cc2cc(C(C)(C)C)cc(C(C)(C)C)c2O)cc1 | 13 µM (inactive) | 13.9 µM (inactive) | 16.8 µM (inactive) | 13.7 µM (inactive) | – | GI50 (RXF 631): 14.9 µM (inactive); GI50 (XF498): 17.8 µM (inactive); GI50 (HOP-18): 19.6 µM (inactive); GI50 (SNB-78): 14.9 µM (inactive)
N#Cc1ccc(C(C2C(=O)NC(=O)NC2=O)C2C(=O)NC(=O)NC2=O)cc1 | – | > 100 µM (inactive) | > 100 µM (inactive) | > 100 µM (inactive) | – | –
CC(C)(C)C1=Cc2cc3cc(C(C)(C)C)[nH]c(=O)c3cc2S(=O)(=O)N1 | 21.4 µM (inactive) | 25.2 µM (inactive) | 19.7 µM (inactive) | – | – | GI50 (SNB-78): 42.1 µM (inactive)
C=CCN1C(=O)C/C(=C2/CCC(=O)N2CC=C)C1=O | > 100 µM (inactive) | > 100 µM (inactive) | > 100 µM (inactive) | > 100 µM (inactive) | – | GI50 (RXF 631): > 100 µM (inactive); GI50 (HOP-18): > 100 µM (inactive); GI50 (SNB-78): > 100 µM (inactive)
COC(=O)/C(=N\Nc1nnc(C)n1N)C(C#N)c1ccc(Cl)cc1 (stereo not drawn) | 58.1 µM (inactive) | > 100 µM (inactive) | > 100 µM (inactive) | > 100 µM (inactive) | – | GI50 (XF498): > 100 µM (inactive); GI50 (HOP-18): > 100 µM (inactive); GI50 (SNB-78): > 100 µM (inactive)
[B].c1ccc([Si](OCCN2CC2)(c2ccccc2)c2ccccc2)cc1 | – | – | – | – | 17.5 µM (inactive) | –
O=C(CCC(=O)Nc1ccc(Cl)cc1)CC(=O)c1ccc(F)cc1 | – | > 100 µM (inactive) | – | > 100 µM (inactive) | – | GI50 (XF498): > 100 µM (inactive); GI50 (SNB-78): > 100 µM (inactive)
O=C(O)CCc1nn2c(nc1=O)sc1ccc3ccccc3c12 | > 100 µM (inactive) | > 100 µM (inactive) | > 100 µM (inactive) | > 100 µM (inactive) | – | GI50 (RXF 631): > 100 µM (inactive); GI50 (XF498): > 100 µM (inactive); GI50 (HOP-18): > 100 µM (inactive); GI50 (SNB-78): > 100 µM (inactive)
CCCCCCCCCCCCCCCCCCNc1ccn(C2OC(COP(=O)(O)OCC3CCC(n4cnc5c(=O)[nH]cnc54)O3)C(O)C2O)c(=O)n1 (stereo not drawn) | – | – | – | – | > 100 µM (inactive) | –
Cc1ccc(-c2c(C#N)c(-c3ccccc3)n(NS(=O)(=O)c3ccc(C)cc3)c(=O)c2C#N)cc1 | – | – | – | – | 22.9 µM (inactive) | –
COc1cc(CSc2ccc(O)cc2)cc(O)c1O | – | – | – | – | 18.3 µM (inactive) | –
N#CC1=C(N)OC(c2ccc([N+](=O)[O-])cc2)C1(C#N)C#N (stereo not drawn) | – | – | – | – | 17.1 µM (inactive) | –
Cc1cnc2sn(-c3ccc([N+](=O)[O-])cc3)c(=O)c2c1 | – | – | – | – | 43.2 µM (inactive) | –
C=CCN(N=O)C(=O)N(CCCCC(NC(C)=O)C(=O)NCc1ccccc1)Cc1ccccc1 (stereo not drawn) | 27.7 µM (inactive) | 31.1 µM (inactive) | 35.2 µM (inactive) | 41.1 µM (inactive) | – | GI50 (RXF 631): 32.5 µM (inactive); GI50 (XF498): 36.1 µM (inactive); GI50 (HOP-18): 23 µM (inactive)
CCOC(=O)c1c(SCCN2CCCC2)n(-c2ccccc2)c(=S)n(-c2ccccc2)c1=O | – | – | – | – | 5.37 µM (inactive) | –
CCOC(=O)CSc1nc(-c2ccc(Cl)cc2)c(C#N)c(=O)[nH]1 | – | – | – | – | > 100 µM (inactive) | –
O=C(NCCCCCCNC(=O)c1cc(-c2ccccc2)nc2ccccc12)c1cc(-c2ccccc2)nc2ccccc12 | – | – | – | – | > 100 µM (inactive) | –
S=c1oc(CCCCCCCCc2nn(CNc3ccccc3)c(=S)o2)nn1CNc1ccccc1 | – | – | – | – | > 100 µM (inactive) | –
